Source: patent US20230372335A1, “TREATMENT OF COGNITIVE IMPAIRMENT WITH A CNS-PENETRANT sGC STIMULATOR” (Cyclerion Therapeutics, Inc., priority 2020, published 2023)
“Also recorded” adds a separate entry of the source.

How the values were obtained:
rats = conditions: cited from earlier work
[1] = CSF concentration of study drug (pharmacokinetics), NCT04240158; format: in vivo, human
Experimental: (§1) One dosage regimen was studied in this clinical trial. For subjects receiving IW-6463 during the given dosing period, IW-6463 tablets were administered orally at a 15-mg total once-daily dose for. For subjects receiving placebo during the given dosing period, placebo tablets to match IW-6463 tablets were used. For Cohort 1, the 15 mg total oral daily dose was selected based on emerging data from the Phase 1 study NCT03856827, pre-clinical qEEG results, as well as multispecies PK parameters. For Cohort 2, in addition to the those data. the emerging data from Cohort 1 of this study supported selection of the 15 mg total oral daily dose.
The PK analysis population is defined as all participants who were randomized, received at least 1 dose of study drug, and have at least 1 measurable drug concentration of Compound 1 in collected samples.

[2] = tested on: CSF neuroinflammatory markers; assay: Exploratory CSF biomarker analysis, NCT04240158; format: in vivo, human; conditions: after two weeks of treatment
Description: Biomarkers measured in the CSF included: neurofilament light chain (NF-L) and cGMP. Other biomarkers measured in CSF include A2M, C3, TIMP1, PAI1 MCP1, PARC (CCL18), MMP3 and TNFR2.

[3] = tested on: healthy elderly participants; assay: Saccadic eye movements (SEM), NeuroCart, NCT04240158; format: in vivo, human; conditions: 15 mg oral once daily
Experimental: In this trial, SEMs were recorded at different times. Recording and analysis of SEMs were conducted with a microcomputer-based system for sampling and analysis of eye movements. The program for signal collection and the AD-converter was from Cambridge Electronic Design (CED Ltd., Cambridge, UK), the amplification by Grass (Grass-Telefactor, An Astro-Med, Inc. Product Group, Braintree, MA, USA) and the sampling and analysis scripts were developed at the CHDR (Leiden, the Netherlands). Disposable silver-silver chloride electrodes (Ambu Blue Sensor N) were applied on the forehead and beside the lateral canthi of both eyes of the participant for registration of the electro-oculographic signals. Skin resistance was reduced to less than 5 kOhm before measurements. […] SEMs were recorded for stimulus amplitudes of approximately 15 degrees to either side. Fifteen saccades were recorded with interstimulus intervals varying randomly between 3 and 6 seconds. […] Saccadic inaccuracy was calculated as the absolute value of the difference between the stimulus angle and the corresponding saccade, expressed as a percentage of the stimulus angle. SEMs were recorded in a training session at screening and during each Neurocart session (on day 1 and 15 of each treatment period at 2 hours pre-dose; on day 15 of each treatment period at 2, 3, and 6 hours post-dose). […]

[4] = Plasma and CSF concentrations in NCT03856827 trial; format: in vivo, human; conditions: total oral daily dose of 10 mg
pre-clinical models = conditions: cited from earlier work
rodents = conditions: pre-clinical models; cited from earlier work
[5] = tested on: healthy elderly participants; assay: Resting-state EEG power spectra, healthy elderly study NCT04240158; format: in vivo, human
Experimental: Resting-state EEG recordings with open and closed eyes for 5 min in each eye state were performed. Each recording employed alternating periods with eyes open and closed with a duration of 64-seconds for each period. Participants faced a featureless wall and were instructed not to stare, not to move their head and eyes, and to suppress eye blinks.
An EEG cap with electrodes at the Fz, Cz, Pz, and Oz positions (referring to frontal, central, parietal, and occipital regions at the midline, respectively) was used to record signals. Analyses of EEG-power spectra signals were carried out at the following frequency bands: • Delta-1-4 Hz (typically associated with sleep), Theta-4-7.5 Hz (associated with waking/falling asleep, some association with cognition), Alpha-8-12 Hz (associated with passive wakefulness, and with cognitive processing), Beta-12-25 Hz (associated with alertness and concentration) and Gamma-25-45 Hz (associated with higher cognitive function).
(§2) This single-center double-blind, randomized, placebo-controlled, two-way, cross-over study evaluated a single dose level of IW-6463 compared to placebo. Subjects (male and female) were enrolled into 2 pre-defined, staggered cohorts (Cohort 1 and Cohort 2). The dose selected for both cohorts was the same but the start of enrollment within each cohort was different. This was based upon the availability of preliminary data from the previously started Phase 1 study NCT03856827 in healthy subjects and the emerging safety profile for that study from which a potential different second dose was being considered, but finally was not selected.
as §1

[6] = tested on: healthy elderly participants; assay: Safety and tolerability (adverse events, blood pressure), NCT04240158; format: in vivo, human
Experimental: Evaluations of systolic and diastolic blood pressure, pulse rate, respiratory rate, and temperature were performed throughout the study. Pulse and blood pressure were taken after the participant had rested quietly for 5 minutes in supine position. Automated oscillometric blood pressures and pulse rate were measured using a Dash 3000, Dash 4000, Dynamap 400, or Dynamap ProCare 400.
as §1
The safety population is defined as all participants who were randomized and received at least 1 dose of study drug.

[7] = tested on: healthy elderly participants; assay: N200 (MMN) auditory event-related potential by EEG, NCT04240158; format: in vivo, human; conditions: for ERP N200 amplitude: vs placebo or pre-treatment (FIG. 3); for N200 latency response vs age: subjects older than 70 vs 65-69 years old (FIG. 4, FIG. 8)
Experimental: In P300 and N200 ERP studies, participants were seated wearing the EEG cap and headphones and were instructed to sit still and relax. During the task, participants were presented with auditory tones. Participants were instructed to pay attention to the tones and press a response-button when they heard an infrequent/deviant tone. A total of 500 tones were presented over […], of which 400 were presented as frequent stimuli and 100 as deviant/infrequent stimuli. […] The first 5 trials were frequent tones and there were at least 2 frequent tones between 2 deviant/infrequent tones. The frequent and infrequent tones were 150 ms tones of 500 Hz and 1000 Hz at a sound pressure level of 75 dB, respectively. All tones has a 5 ms rise and fall time. Tones were presented at a fixed rate of 1 Hz.
as §2, §1

[8] = tested on: healthy subjects aged 18 to 62; assay: EEG in Phase I clinical trial NCT03856827; format: in vivo, human
Description: Nonclinical pharmacology and toxicology data supported conducting clinical studies of Compound Ito assess its safety, tolerability, pharmacokinetic (PK), and pharmacodynamics (PD) in humans. In a Phase I clinical trial (NCT03856827) changes were also observed in the brains of healthy subjects aged 18 to 62 by EEG.

[9] = healthy elderly, 15 mg oral once daily
[10] = healthy elderly, 15 mg oral once daily, Day 15
[11] = safety population, 15 mg oral once daily up to 15 days

Fc1ccccc1Cc1nc(-c2nc(C(F)(F)F)n[nH]2)cn2ccnc12 [Compound I]
qEEG gamma power in combination with donepezil (rats; 10 mg/kg oral plus 1 mg/kg donepezil, 1-2 hours post-dose): further increased
qEEG gamma oscillations / gamma power compared to vehicle dosing (rats; oral suspension): increased gamma oscillations
qEEG gamma power (rats; orally at 10 mg/kg): increased gamma power
concentration at 5 h ([1]; human, CSF, 15 mg oral once daily, 5-hrs post last dose): 77 nM
CSF concentration relative to threshold expected for pharmacological activity in the brain ([1]; threshold determined from preclinical models): 2-3 times
CSF concentration of Alpha 2 macroglobulin (A2M) vs placebo ([2]; nominal p 0.013 (FIG. 9)): potentially important reductions in the concentrations
CSF concentration of complement C3 (C3) vs placebo ([2]; nominal p 0.039 (FIG. 9)): potentially important reductions in the concentrations
LS mean difference in change from baseline for saccadic peak velocity vs placebo (95% CI) ([3]; day 15): 28.53 (−2.76, 59.83)
LS mean difference in change from baseline for saccadic latency (reaction time) vs placebo ([3]; day 15, p=0.0216): -6.58 ms
mean plasma and CSF concentrations vs threshold for pharmacological activity in the brain [4]: exceed the threshold
effects on memory and learning (pre-clinical models): displaying effects on memory and learning
effects on neuroinflammation (pre-clinical models): positive effects on neuroinflammation
neuroprotective properties (pre-clinical models): displayed neuroprotective properties
activation of brain regions by fMRI-BOLD (rodents): activation of subcortical brain structures relevant to cognition
cerebral blood flow (CBF) (rodents): increased cerebral blood flow
mean alpha band power relative to placebo ([5]; Day 15 prior to last dose and 2, 3, 6 hours after last dose (FIG. 1)): increased mean alpha band power relative to placebo at all post-baseline timepoints
EEG (anterior) gamma power, change from baseline [5, 9]: 1 dB
EEG (anterior) gamma power, increase from baseline [5, 9]: 45%
EEG (anterior) alpha power, change from baseline [5, 10]: 0.6 dB
EEG (anterior) alpha power, increase from baseline [5, 10]: 17.5%
EEG (anterior) alpha power, treatment effect vs placebo [5, 10]: 13%
EEG (posterior) alpha power, change relative to baseline [5, 10]: 0.5 dB
EEG (posterior) alpha power, increase from baseline [5, 10]: 13.7%
EEG (posterior) alpha power, treatment effect vs placebo [5, 10]: 17%
headache (most commonly reported CNS event) rate ([6]; IW-6463 vs placebo): rates were similar between treatments
AE reports of syncope, hypotension or other hemodynamic events [6, 11]: no AE reports of syncope, hypotension or other events potentially related to changes in hemodynamics
blood pressure measurements below the normal range [6, 11]: no blood pressure measurements reported below the normal range
magnitude of improvement as age related change in N200 latency ([7]; at older ages, after two weeks of treatment): 10 year
ERP N200 latency ([7]; healthy elderly, 15 mg oral once daily, day 14, compared with placebo, p=0.02): significantly shorter
ERP N200 amplitude [7, 9]: larger N200 negative amplitudes were observed with increasing age
ERP N200 amplitude ([7]; healthy elderly, 15 mg oral once daily, listed as IW-6463): increased the amplitude
N200 latency response vs age [7]: smaller latency increases with increasing age; also recorded: greater in subjects older than 70 years old
N200 latency response vs age ([7]; listed as IW-6463): greater in subjects older than 70 years old
alpha power compared to placebo ([8]; NCT03856827, day 14, across all dosage levels tested): Improvements in alpha power
ERP P300 amplitude ([8]; healthy subjects aged 18 to 62, NCT03856827): increase in amplitude with increasing dose level
